From PubChem BioAssay (NCI)
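Growth conditions: 96-well plates. Treatment: test compound, 48 hours, 5 concentrations. Analysis: linear interpolation between bracketing concentrations; unreached endpoints set to highest concentration. Here, GI50 denotes the concentration required for 50% inhibition of growth. TGI: total growth inhibition.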

Experiments:
Assay in all cases: DTP human tumour cell line panel, 48 h
COLO 205 colon = system: COLO 205 colon
EKVX NSCLC = system: EKVX NSCLC
HCC-2998 colon = system: HCC-2998 colon
IGROV1 ovarian = system: IGROV1 ovarian
K-562 leukemia = system: K-562 leukemia
NCI-H522 lung = system: NCI-H522 lung
RPMI-8226 leukemia = system: RPMI-8226 leukemia
SK-MEL-2 melanoma = system: SK-MEL-2 melanoma
SK-MEL-28 melanoma = system: SK-MEL-28 melanoma
UO-31 renal = system: UO-31 renal

| SMILES | GI50 (COLO 205 colon) | TGI (COLO 205 colon) | GI50 (EKVX NSCLC) | TGI (EKVX NSCLC) | GI50 (HCC-2998 colon) | TGI (HCC-2998 colon) | GI50 (IGROV1 ovarian) | TGI (IGROV1 ovarian) | GI50 (K-562 leukemia) | TGI (K-562 leukemia) | GI50 (NCI-H522 lung) | TGI (NCI-H522 lung) | GI50 (RPMI-8226 leukemia) | TGI (RPMI-8226 leukemia) | GI50 (SK-MEL-2 melanoma) | TGI (SK-MEL-2 melanoma) | GI50 (SK-MEL-28 melanoma) | TGI (SK-MEL-28 melanoma) | GI50 (UO-31 renal) | TGI (UO-31 renal) |
| --- | --- | --- | --- | --- | --- | --- | --- | --- | --- | --- | --- | --- | --- | --- | --- | --- | --- | --- | --- | --- |
| CCCCCCNc1nc(NCCCCCC)c2[nH]c(NCCCCCC)nc2n1 | 1.32 µM | 2.76 µM | 5.51 µM | 30 µM | 12.5 µM | 26.8 µM | 19 µM | > 53.2 µM | 7.02 µM | 25.1 µM | 2.14 µM | 7.68 µM | 1.86 µM | 10.3 µM | 11.5 µM | 28.7 µM | 12.1 µM | 24.6 µM | 14 µM | 35 µM |
| Cc1ccc([N+](=O)[O-])c2c(NCCCN(C)C)ccnc12 |  | 31.8 µM |  | > 100 µM |  | 45.5 µM |  | 91.8 µM |  | > 100 µM |  | 55.8 µM |  | > 100 µM |  | > 100 µM |  | > 100 µM |  | > 100 µM |
| COc1ccc(C2C(C#N)=C(N)OC3=C2CCCc2ccc(F)cc23)cc1OC (stereo not given) | 38.5 µM | > 95.8 µM | 10.1 µM | 37.5 µM | 15.6 µM | 31.6 µM | 18.3 µM | 46.3 µM | 26.6 µM | > 100 µM | 17.8 µM | 37.6 µM | 7.46 µM | 22.8 µM | 21.2 µM | 57.9 µM | 24.5 µM | > 62.4 µM | 16.5 µM | 31.8 µM |
| CCCNCc1cc(C)cc2c1nc(N1CCNCC1)n2Cc1cc(C)c(F)c(C)c1 | 1.82 µM | 3.42 µM | 9.56 µM | 22.6 µM | 1.83 µM | 3.47 µM | 10.3 µM | 25.1 µM | 1.9 µM | 3.78 µM | 2.09 µM | 5.67 µM | 2.09 µM | 5.29 µM | 14.1 µM | 28.1 µM | 1.84 µM | 3.54 µM | 13.2 µM | 27.3 µM |
| O=P(O)(O)C(O)(Cn1ccnc1)P(=O)(O)O | > 100 µM | > 100 µM | > 87.9 µM | > 100 µM | 98.2 µM | > 100 µM | 53.5 µM | > 100 µM | > 100 µM | > 100 µM | > 100 µM | > 100 µM | 15.6 µM | > 100 µM | > 100 µM | > 100 µM | > 62.8 µM | > 100 µM | > 68.3 µM | > 100 µM |
| CC(=O)n1c(-c2ccc(Cl)cc2)nc2c(c1=O)C(c1ccc(Cl)cc1)c1sc3c(Cl)cccc3c1O2 (stereo not given) | 0.364 µM | 1.57 µM | 0.926 µM | 3.71 µM | 1.09 µM | 2.57 µM | 0.847 µM | 3.11 µM | 0.405 µM | 2.32 µM | 0.296 µM | 1.63 µM | 0.504 µM | 4.75 µM | 0.482 µM | 2.15 µM | 1.1 µM | 3.15 µM | 0.551 µM | 2.2 µM |
| C=CCOc1c(Br)cc(Br)cc1Br | 22.2 µM | 56.9 µM | 10.3 µM | > 100 µM | 46.4 µM | > 100 µM | 5.26 µM | 67.1 µM | 7.92 µM | > 100 µM | 4.68 µM | 30.7 µM | 16.2 µM | > 100 µM | > 100 µM | > 100 µM | 75.5 µM | > 100 µM | 2.82 µM | 57.8 µM |
| CC(=O)[CH-]C(C)=O.CC(=O)[CH-]C(C)=O.N=CC=N.[Sn+2] | 2.02 µM | 3.61 µM | 6.42 µM | 19.4 µM | 12.5 µM | 25.2 µM | 9.53 µM | 22.4 µM | 2.19 µM | 13 µM | 0.911 µM | 2.13 µM | 1.48 µM | 4.38 µM | 3.46 µM | 11.2 µM | 1.92 µM | 4.27 µM | 9 µM | 21.1 µM |
| O=C(Nc1ccc(S(=O)(=O)N[C@@H](C(=O)O)c2ccccc2)cc1)c1ccc(F)cc1 |  | > 100 µM |  | > 100 µM |  | > 100 µM |  | > 100 µM |  | > 100 µM |  | > 100 µM |  | > 100 µM |  | > 100 µM |  | > 100 µM |  | > 100 µM |
| COc1ccc2c(-c3cc4ccccc4o3)cc(=O)oc2c1 |  | > 100 µM |  | > 100 µM |  | > 100 µM |  | > 100 µM |  | > 100 µM |  | > 91.8 µM |  | > 100 µM |  | > 100 µM |  | > 100 µM |  | 65.6 µM |
| NS(=O)(=O)c1ccc(NC(=O)c2cccc3c(=O)c4ccccc4[nH]c23)cc1 |  | > 100 µM |  | > 100 µM |  | > 100 µM |  | > 100 µM |  | > 100 µM |  | 65.4 µM |  | > 100 µM |  | > 100 µM |  | > 100 µM |  | 67.8 µM |
| Nc1ccc(SC23CC4CC(CC(C4)C2)C3)cc1 |  | > 100 µM |  | > 100 µM |  | > 100 µM |  | > 100 µM |  | > 100 µM |  | > 100 µM |  | > 100 µM |  | > 100 µM |  | > 100 µM |  | > 100 µM |
| CCN(CCO)CCNc1ccc(C)c2sc3cc(Cl)ccc3c(=O)c12 | 1.14 µM | 2.62 µM | 1.62 µM | 3.18 µM | 1.51 µM | 3.14 µM | 1.64 µM | 3.39 µM | 0.32 µM | 1.42 µM | 1.56 µM | 3.21 µM | 1.86 µM | 4.6 µM | 1.78 µM | 3.56 µM | 1.64 µM | 3.23 µM | 1.1 µM | 2.4 µM |
| COc1ccc(NC2=C(Br)C(=O)C(C)=C(C)C2=O)cc1 | 21.3 µM | 51 µM | 1.69 µM | 3.12 µM | 12.4 µM | 26.5 µM | 1.8 µM | 3.39 µM | 2.25 µM | > 100 µM | 12.7 µM | 31.8 µM | 2.21 µM | 5.01 µM | 11.4 µM | 28.3 µM | 2.3 µM | 4.76 µM | 1.73 µM | 3.16 µM |
